Measurements taken from paper PMC7047268 (ACS Central Science, 2020).

Assays:
5-HT2C [1] = biological target: T1, 5-HT2C (Homo sapiens, UniProt P28335); assay: cell-based; format: cell-based
T1 sequence (P28335 33-458): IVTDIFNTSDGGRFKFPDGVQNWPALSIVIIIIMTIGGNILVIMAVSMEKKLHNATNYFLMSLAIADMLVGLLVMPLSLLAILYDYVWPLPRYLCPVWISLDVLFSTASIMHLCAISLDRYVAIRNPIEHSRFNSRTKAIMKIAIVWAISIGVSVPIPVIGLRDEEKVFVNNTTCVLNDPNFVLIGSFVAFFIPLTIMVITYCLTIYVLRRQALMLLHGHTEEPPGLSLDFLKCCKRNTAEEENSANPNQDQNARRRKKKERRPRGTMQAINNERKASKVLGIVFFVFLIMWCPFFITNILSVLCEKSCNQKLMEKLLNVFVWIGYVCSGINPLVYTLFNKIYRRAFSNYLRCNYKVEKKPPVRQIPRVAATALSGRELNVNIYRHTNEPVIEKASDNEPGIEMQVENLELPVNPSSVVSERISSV

5-HT2B = 5-HT2B (Homo sapiens, UniProt P41595); assay: cell-based; format: cell-based; conditions: for Gq agonism for 5-HT2B: agonist mode
5-HT2A = 5-HT2A (Homo sapiens, UniProt P28223); format: cell-based; conditions: for Gq agonism for 5-HT2A: agonist mode
[2] = test system: overnight fasting male C57BL/6J mice; assay: Acute feeding suppression; format: in vivo; conditions: intraperitoneal; 1857 30 mg/kg, lorcaserin 10 mg/kg; vs vehicle
[3] = biological target: T2, human 5-HT2C and its mutants (Homo sapiens, UniProt P28335); assay: Tango β-arrestin2 recruitment assay, HTLA cells; format: cell-based; conditions: for β-arrestin2 recruitment agonist activity (Tango): wild-type 5-HT2C, agonist mode
T2 sequence (P28335 33-458): T1 sequence (P28335 33-458)

5-HT2C [4] = biological target: T1, 5-HT2C; format: cell-based
[5] = test system: diet-induced obesity (DIO) mice; assay: DIO mice feeding suppression; format: in vivo
[6] = test system: wild-type or mutant 5-HT2C; assay: Radiolabeled ligand binding assay, 3H-mesulergine, transfected CHO cells; set-up: species or system human
[7] = 30 mg/kg i.p. daily for 10 days
[8] = 30 mg/kg i.p. daily for 10 days, vs vehicle
[9] = 30 mg/kg i.p. daily, from day 5 until end of study

Chain of 5-HT2A (P28223 whole entry): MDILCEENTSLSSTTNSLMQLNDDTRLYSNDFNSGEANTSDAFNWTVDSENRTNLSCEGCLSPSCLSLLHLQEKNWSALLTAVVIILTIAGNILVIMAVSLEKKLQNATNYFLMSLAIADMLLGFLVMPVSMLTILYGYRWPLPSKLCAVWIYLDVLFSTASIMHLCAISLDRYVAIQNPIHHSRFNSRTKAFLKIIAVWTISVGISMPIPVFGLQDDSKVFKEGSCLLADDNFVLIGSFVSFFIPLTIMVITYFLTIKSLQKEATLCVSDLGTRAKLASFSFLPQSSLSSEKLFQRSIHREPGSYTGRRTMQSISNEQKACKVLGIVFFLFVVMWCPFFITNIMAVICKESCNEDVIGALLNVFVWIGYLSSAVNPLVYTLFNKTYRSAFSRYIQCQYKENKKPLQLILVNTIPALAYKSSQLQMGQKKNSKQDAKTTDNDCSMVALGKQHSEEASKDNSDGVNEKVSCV
Chain of 5-HT2B (P41595 whole entry): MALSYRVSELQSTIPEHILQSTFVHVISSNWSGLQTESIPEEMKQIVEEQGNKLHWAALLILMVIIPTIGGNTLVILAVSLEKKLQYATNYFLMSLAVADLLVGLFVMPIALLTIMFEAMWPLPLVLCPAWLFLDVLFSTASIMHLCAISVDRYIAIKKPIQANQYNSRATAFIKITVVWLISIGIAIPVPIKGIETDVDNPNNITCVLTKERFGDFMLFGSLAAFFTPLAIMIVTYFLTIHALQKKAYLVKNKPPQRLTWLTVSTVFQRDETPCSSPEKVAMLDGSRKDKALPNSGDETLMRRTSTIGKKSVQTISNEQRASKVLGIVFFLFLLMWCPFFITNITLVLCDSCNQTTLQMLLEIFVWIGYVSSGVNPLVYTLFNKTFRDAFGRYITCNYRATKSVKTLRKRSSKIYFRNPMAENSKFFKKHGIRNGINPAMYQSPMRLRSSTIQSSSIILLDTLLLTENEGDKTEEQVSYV

Compound: COc1cc2c3c(c1OC)-c1ccccc1CC3NCC2 (centres unmarked) [Compound 15781, nornuciferine]
- EC50 (5-HT2C [1]): 653 nM
- Emax (5-HT2C [1]; HEK-293T, read-out: Emax relative to 5-HT): 65.6%
- IC50 (5-HT2B): > 10000 nM
- Gq agonism for 5-HT2B (5-HT2B): none of them exhibited measurable Gq agonism
- Gq agonism for 5-HT2A (5-HT2A): none of them exhibited measurable Gq agonism

Compound: COc1cc2c3c(c1OC)-c1ccccc1C[C@H]3N(C)CC2 [Compound 15856, Nuciferine]
- antagonism of Gq-mediated activity at 5-HT2C (5-HT2C [1]): sub-micromolar potency
- antagonism of Gq-mediated activity at 5-HT2B (5-HT2B): sub-micromolar potency
- antagonism of Gq-mediated activity at 5-HT2A (5-HT2A): sub-micromolar potency

Compound: C[C@H]1CNCCc2ccc(Cl)cc21 [Lorcaserin, lorcaserin, reference compound]
- agonist efficacy class in G protein pathway at 5-HT2C (5-HT2C [1]): full agonist
- acute food intake suppression [2]: suppressed food intake up to 2 h postinjection
- β-arrestin2 recruitment agonist activity (Tango) [3]: full agonist

Compound: (R)-asimilobine [Compound 1857]
- in vitro potency for 5-HT2C activation lower than that of lorcaserin (5-HT2C [1]): 2 orders of magnitude
- Emax relative to 5-HT (5-HT2C [1]; Gq-mediated calcium signaling at 5-HT2C): 86.1%
- β-arrestin2 recruitment agonist activity (BRET) (5-HT2C [4]): does not possess agonist activity
- antagonism of β-arrestin2 association (BRET) (5-HT2C [4]; agonist lorcaserin (4 μM)): acts as an antagonist for β-arrestin2 association
- Gq agonism for 5-HT2B (5-HT2B): none of them exhibited measurable Gq agonism
- acute food intake suppression [2]: reduced food intake from 30 min to 4 h postinjection
- Gq agonism for 5-HT2A (5-HT2A): none of them exhibited measurable Gq agonism
- blood glucose relative to vehicle [5, 7]: −20.9%
- liver TC and TG levels [5, 7]: decreased liver TC and TG levels
- serum total cholesterol (TC) relative to vehicle [5, 7]: −7.9%
- serum total triglyceride (TG) relative to vehicle [5, 7]: unchanged
- total organ weight of epididymal white adipose tissue (WAT) [5, 8]: −29.3%
- total organ weight of inguinal WAT [5, 8]: −46.4%
- body weight in DIO mice [5, 9]: weight loss
- food intake in DIO mice [5, 9]: Significant reduction of food intake
- enhancement of binding [6]: 6 fold
- antagonism of β-arrestin signaling (Tango) ([3]; against agonist ergotamine): acts as an antagonist
- β-arrestin2 recruitment agonist activity (Tango) [3]: no β-arrestin recruitment activity
